Data as given in patent US8455186B2, “Method of detection of microorganisms with enhanced bacteriophage amplification” (priority 2007, dated 2013).

What was measured:
S. aureus strains [1] = test: Stimulation of bacteriophage amplification by fatty acid compounds, all hosts tested; details: for effect on bacteriophage amplification: fatty acid compound added to growth medium
[2] = system: clinical MRSA (methicillin-resistant S. aureus) isolates; test: Phage amplification in MRSA strains with cefoxitin and/or lauric acid (FIG. 3)
Source text: In FIG. 3, each symbol represents a clinical MRSA (methicillin-resistant S. aureus) isolate able to grow in the presence of β-lactam antibiotics such as cefoxitin. The first column 62 (circles) indicates amplification by MRSA strains with no cefoxitin and no lauric acid. The second column 64 (squares) indicates amplification with added cefoxitin. […] The third column 66 (diamonds) indicates amplification with added lauric acid. The fourth column 70 (x's) indicate amplification with added lauric acid and cefoxitin.

[3] = system: clinical isolates of S. aureus (good bacteriophage hosts); test: Bacteriophage amplification on permissive (good) S. aureus hosts with lauric acid (FIG. 2)
[4] = system: clinical isolates of S. aureus (poorest hosts for bacteriophage amplification); test: Bacteriophage amplification (MP112 and MP115) on poor or restrictive S. aureus hosts with lauric acid (FIG. 1)
Source text: The 28 strains in this study were chosen from a collection of 202 clinical isolates as the poorest hosts for bacteriophage amplification.

S. aureus strains [5] = test: Bacteriophage mean amplification versus sodium pyruvate concentration (FIG. 5); assay type: cell-based, Staphylococcus aureus
[6] = system: panel of 32 S. aureus strains; test: Bacteriophage sensitivity versus sodium pyruvate concentration (FIG. 4)

CCCCCCCCCC(=O)O [capric acid]
effect on bacteriophage amplification (S. aureus strains [1]): positively stimulate bacteriophage amplification

CCCCCC(=O)O [caproic acid]
effect on bacteriophage amplification (S. aureus strains [1]): positively stimulate bacteriophage amplification

CCCCCCCC(=O)O [caprylic acid]
effect on bacteriophage amplification (S. aureus strains [1]): positively stimulate bacteriophage amplification

CO[C@@]1(NC(=O)Cc2cccs2)C(=O)N2C(C(=O)O)=C(COC(N)=O)CS[C@@H]21 [cefoxitin, reference compound]
effect on phage amplification in MRSA strains ([2]; added cefoxitin, no lauric acid): suppression of phage amplification

CCCCCCCCCCCC(=O)OCC(O)CO (stereo not shown) [glycerol monolaurate]
effect on bacteriophage amplification (S. aureus strains [1]): positively stimulate bacteriophage amplification

CCCCCCCCCCCC(=O)O [lauric acid]
effect on phage amplification in MRSA strains ([2]; added lauric acid and cefoxitin): relieves suppression of phage amplification by cefoxitin | S. aureus strains tested showing stimulation of bacteriophage amplification (S. aureus strains [1]; in response to lauric acid, strains tested to date): more than 80% | effect on bacteriophage amplification on permissive S. aureus hosts ([3]; FIG. 2 legend): increases bacteriophage amplification | average amplification ([3]; with the addition of lauric acid (5-30 μg/ml), good hosts, 69-fold without): over 100 fold | average level of amplification (output pfu/ml divided by input pfu/ml) ([4]; 30 μg/ml lauric acid, 28 poor-host strains, four hours at 35°, three-fold with no lauric acid): 45 fold | effect on amplification on poor or restrictive S. aureus hosts ([4]; FIG. 1 legend): improves amplification

CCCCC/C=C\C/C=C\CCCCCCCC(=O)O [linoleic acid]
effect on bacteriophage amplification (S. aureus strains [1]): positively stimulate bacteriophage amplification

CCCCCCCCCCCCCC(=O)O [myristic acid]
effect on bacteriophage amplification (S. aureus strains [1]): positively stimulate bacteriophage amplification

CCCCCCCC/C=C\CCCCCCCC(=O)O [oleic acid]
effect on bacteriophage amplification (S. aureus strains [1]): positively stimulate bacteriophage amplification

CC(=O)C(=O)[O-].[Na+] [sodium pyruvate]
effect on mean amplification of the bacteriophage (S. aureus strains [5]; about 10 mmol/L to 60 mmol/L sodium pyruvate): increased significantly | mean amplification of the bacteriophage (S. aureus strains [5]; about 30 mmol/L sodium pyruvate, about 92 without): 150 | effect on phage sensitivity ([6]; 10 mmol/L to 50 mmol/L sodium pyruvate, wide variety of S. aureus strains): significantly increase phage sensitivity | phage sensitivity ([6]; 15 mmol/L to 31 mmol/L sodium pyruvate): above 90% | increase of sensitivity over sensitivities without sodium pyruvate ([6]; 27 mmol/L sodium pyruvate): about 15%
